Columns and labels:
[1] = Particle size measurement by photon correlation spectroscopy; type: physicochemical; settings: PCS, diluted in ethylene glycol, n = 3
Description: The average particle size of GL nanoparticles, GL solid complexes, the β-CD and the gliclazide pure drug were measured by the method of photon correlation spectroscopy (PCS) using Malvern Zetasizer 3000HSA (Malvern Worcestershire, UK). Prior to measurements, about 50 mg of each sample were diluted with 100 ml of ethylene glycol. The sizes of the above-mentioned four particle distributions were estimated by setting the intensity of the scattered light at λ=750 nm and the scattering angle at θ=90°. The background medium, i.e. the ethylene glycol (η=16.1 mPa·s) with the refractive index thereof being 1.431.

[2] = In vitro dissolution test, USP 24 paddle apparatus; type: physicochemical; settings: 37°C; for DP (dissolved percentage): deionized water
Description: According to the USP 24 paddle apparatus, in vitro dissolution tests are performed with Hanson SR8 Plus (Chatsworth, USA). Three samples containing 80 mg of GL pure drug, GL solid complexes with an equivalent amount of GLs and GL nanospheres with an equivalent amount of GLs are poured separately into 900 ml deionized water at 37±0.5° C. with stirring rate at 100 rpm. Afterwards, 0.2 ml of each sample was withdrawn respectively at 1, 3, 5, 10, 15, 30, 60 and 120 min by the Waters transfer module (Milford, USA). Subsequently, the concentration of the samples was assayed using the HPLC method. The dissolution profiles are evaluated by the dissolution efficiency (DE) parameter (Khan, 1975) and the dissolved percentage (DP). The DE of GL pure drug, GL nanospheres and GL solid complex are calculated from the following equation (3).
wherein, y represents the percentage of dissolved product;
t1 and t2 represents the two different time points
y100 represents the maximum percentage of the dissolved sample

[3] = 5 min, 900 ml deionized water, 100 rpm, 80 mg GL equivalent, n = 6
[4] = 30 min, 900 ml deionized water, 100 rpm, n = 6
[5] = 60 min, 900 ml deionized water, 100 rpm, n = 6

Mean size ± S.D. [1] [μm]	DE5 (dissolution efficiency) [2, 3]	DP5 (dissolved percentage) [2, 3]	DE30 (dissolution efficiency) [2, 4]	DP30 (dissolved percentage) [2, 4]	DE60 (dissolution efficiency) [2, 5]	DP60 (dissolved percentage) [2, 5]	DP (dissolved percentage) ([2]; after 60 minutes) [%]	DP (dissolved percentage) ([2]; after five minutes) [%]	SMILES
47.56 ± 2.11	0.0129	1.44	0.0229	3.84	0.0416	8.23	8.23	1.44	Cc1ccc(S(=O)(=O)NC(=O)NN2CC3CCCC3C2)cc1 (stereo not shown) [GL]
161.03±3.12									OC[C@H]1O[C@@H]2O[C@H]3[C@H](O)[C@@H](O)[C@@H](O[C@H]4[C@H](O)[C@@H](O)[C@@H](O[C@H]5[C@H](O)[C@@H](O)[C@@H](O[C@H]6[C@H](O)[C@@H](O)[C@@H](O[C@H]7[C@H](O)[C@@H](O)[C@@H](O[C@H]8[C@H](O)[C@@H](O)[C@@H](O[C@H]1[C@H](O)[C@H]2O)O[C@@H]8CO)O[C@@H]7CO)O[C@@H]6CO)O[C@@H]5CO)O[C@@H]4CO)O[C@@H]3CO [β-CD]

Source: patent US7901712B2, “Gliclazide nanosphere and manufacturing method therefor and application thereof” (Kaoshiung Medical University, priority 2006, dated 2011)
